# Reference: patent publication US9546157B2, “Asymmetric piperidinyl-substituted ureas as medicines” (Helsinn Healthcare SA, priority 2014, dated 2017)
# Legend:
# [1] = target: T1, GHSR1a (Homo sapiens, UniProt Q92847); experiment: Calcium FLIPR assay, GHSR-1a agonism; assay type: cell-based; set-up: Emax: unit not given here; settings: HEK293/GHSR1a cells
# T1 construct: expressed in transfected cells; host or cells: HEK293
# Method in brief: (§1)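 Calcium dye-loaded HEK293/GHSR1a cells were monitored by FLIPR fluorescence for 2 min after additions at t=20 s. For antagonist mode, compound was co-added with ghrelin (10 nM) and scored by lowering the ghrelin signal. Agonist mode added compound alone; EC50 and IC50 came from dose-response data.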
# [2] = test system: C57BL/6J mice; experiment: Food intake test in mouse (GHSR1a antagonists); assay type: in vivo
# Description: Male C57BL/6J mice, 18-22 g body weight, were fasted overnight (16 h before compound administration) and placed in a regular light dark cycle (6:00-18:00 light/18:00-6:00 dark). After 1 wk acclimation, animals were sorted into two groups (n=6 each, 2 per cage) based on body weight. Animals in group one were be treated with vehicle and animals in group 2 were treated with the test agent (n=6 for each group). The cumulative food intake was evaluated at 1, 2, 4, 8 and 24 hrs after drug or vehicle treatment. Food intake was measured by subtracting uneaten food from the initial premeasured food.
# [3] = target: T1, GHSR1a; experiment: Calcium FLIPR assay, GHSR-1a antagonism (reduction of ghrelin response); assay type: cell-based; settings: HEK293/GHSR1a cells, ghrelin 10 nM
# Method in brief: as §1
# [4] = Metabolic Stability (H = Human); assay type: in vitro ADME
# [5] = Metabolic Stability (M = Mouse); assay type: in vitro ADME
# T1 sequence (Q92847 whole entry): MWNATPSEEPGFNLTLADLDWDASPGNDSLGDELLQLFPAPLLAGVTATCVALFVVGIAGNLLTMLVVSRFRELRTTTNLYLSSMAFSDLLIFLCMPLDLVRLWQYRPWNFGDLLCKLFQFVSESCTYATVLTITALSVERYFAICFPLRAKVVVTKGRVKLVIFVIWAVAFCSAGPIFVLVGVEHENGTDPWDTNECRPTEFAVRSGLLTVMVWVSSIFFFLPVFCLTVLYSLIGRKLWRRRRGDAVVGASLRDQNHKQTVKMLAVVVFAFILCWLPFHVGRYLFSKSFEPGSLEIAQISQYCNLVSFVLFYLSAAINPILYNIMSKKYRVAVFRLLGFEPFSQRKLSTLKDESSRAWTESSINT
smiles,measurement,setting,value
"C[C@@H](NC(=O)N(C)C1CCN(C)CC1)c1ccc(-c2cnccn2)c(Cl)c1Cl [Compound H0817, (R)-3-(1-(2,3-dicholoro-4-(pyrazin-2-yl)phenyl)ethyl)-1-methyl-1-(1-methylpiperidin-4-yl)urea]",EC50,[1],> 30000 nM
same,"Mouse Food Intake, result in words",[2]; 30 mg/kg PO fasted mice,30 mg/kg PO fasted mice NSE
same,IC50,[3],94 nM
CC(NC(=O)N(C)C1CCN(C)CC1)c1ccc(-c2nccnc2F)c(Cl)c1Cl (stereo not shown) [Compound H0840],EC50,[1],> 30000 nM
same,"Mouse Food Intake, result in words",[2]; PO 10 mg/kg + ANA (ANAM) 30 mg/kg mice,PO 10 mg/kg + ANA 30 mg/kg mice: NSE
same,IC50,[3],47 nM
"C[C@H](NC(=O)N(C)C1CCN(C)C1)c1ccc(C#CC2CC2)c(Cl)c1Cl (stereo partly drawn) [Compound H0838, 3-((S)-1-(2,3-dichloro-4-(cyclopropylethynyl)phenyl)ethyl)-1-methyl-1-(1-methylpyrrolidin-3-yl)urea]",EC50,[1],21 nM
same,Emax,[1],1340
same,"Mouse Food Intake increase, activity up to",[2]; 30 mg/kg PO mice,≤ 8 h
same,Mouse Food Intake % increase,"[2]; 2 h, 30 mg/kg PO mice",205%
same,IC50,[3],4 nM
"CC(NC(=O)N(C)C1CCN(C)CC1)c1ccc(C#CC2CC2)c(Cl)c1Cl (single isomer, unassigned) [Compound H0819, 3-(1-(2,3-dichloro-4-(cyclopropylethynyl)phenyl)ethyl)-1-methyl-1-(1-methylpiperidin-4-yl)urea]",EC50,[1],140 nM
same,Emax,[1],1419
same,"Mouse Food Intake, result in words",[2]; 30 mg/kg PO fasted mice,30 mg/kg PO fasted mice NSE
same,IC50,[3],65 nM
"Cc1ccc(-c2ccc(C(C)NC(=O)N(C)C3CCN(C)CC3)c(Cl)c2Cl)o1 (stereo not shown) [Compound H0665, 3-(1-(2,3-dichloro-4-(5-methylfuran-2-yl)phenyl)ethyl)-1-methyl-1-(1-methylpiperidin-4-yl)urea]",EC50,[1],8 nM
same,Metabolic Stability H,[4],High
same,Metabolic Stability M,[5],Medium
same,IC50,[3],4 nM
"CC(O)c1ccc(-c2ccc(C(C)NC(=O)N(C)C3CCN(C)CC3)c(Cl)c2Cl)s1 (stereo not shown) [Compound H0656, 3-(1-(2,3-dichloro-4-(5-(1-hydroxyethyl)thiophen-2-yl)phenyl)ethyl)-1-methyl-1-(1-methylpiperidin-4-yl)urea]",EC50,[1],15 nM
same,Emax,[1],1350
same,Metabolic Stability H,[4],Medium H Medium M
same,Metabolic Stability M,[5],Medium H Medium M
same,IC50,[3],7 nM
"C[C@H](NC(=O)N(C)C1CCN(C)C1)c1ccc(-c2cncc(F)n2)c(Cl)c1Cl (stereo partly drawn) [Compound H0872, 3-((S)-1-(2,3-dichloro-4-(6-fluoropyrazin-2-yl)phenyl)ethyl)-1-methyl-1-(1-methylpyrrolidin-3-yl)urea]",EC50,[1],> 30000 nM
same,Metabolic Stability H,[4],High
same,Metabolic Stability M,[5],medium
same,IC50,[3],6 nM
"CCC(NC(=O)N(C)C1CCN(C)CC1)c1ccc(-c2cncc(F)n2)c(Cl)c1Cl (stereo not shown) [Compound H0863, 3-(1-(2,3-dichloro-4-(6-fluoropyrazin-2-yl)phenyl)propyl)-1-methyl-1-(1-methylpiperidin-4-yl)urea]",EC50,[1],> 30000 nM
same,Metabolic Stability H,[4],Medium
same,Metabolic Stability M,[5],High
same,IC50,[3],3 nM
"CN1CCC(N(C)C(=O)NC(COCc2cccc(CO)c2)c2ccc(-c3cncnc3)c(Cl)c2Cl)CC1 (stereo not shown) [Compound H0620, 3-(1-(2,3-dichloro-4-(pyrimidin-5-yl)phenyl)-2-((3-(hydroxymethyl)benzyl)oxy)ethyl)-1-methyl-1-(1-methylpiperidin-4-yl)urea]",EC50,[1],> 30000 nM
same,Metabolic Stability H,[4],Poor H Poor M
same,Metabolic Stability M,[5],Poor H Poor M
same,IC50,[3],32 nM
"CC(NC(=O)N(C)C1CCN(C)CC1)c1ccc(CO)c(Cl)c1Cl (stereo not shown) [Compound H0633, 3-(1-(2,3-dichloro-4-(hydroxymethyl)phenyl)ethyl)-1-methyl-1-(1-methylpiperidin-4-yl)urea]",EC50,[1],15 nM
same,Metabolic Stability H,[4],High H High M
same,Metabolic Stability M,[5],High H High M
same,IC50,[3],3 nM
"CN1CCC(N(C)C(=O)N[C@@H](c2ccc(-c3cnccn3)c(Cl)c2Cl)C(F)(F)F)CC1 [Compound H0899, (S)-3-(1-(2,3-dichloro-4-(pyrazin-2-yl)phenyl)-2,2,2-trifluoroethyl)-1-methyl-1-(1-methylpiperidin-4-yl)urea]",EC50,[1],> 30000 nM
same,Metabolic Stability H,[4],Medium
same,Metabolic Stability M,[5],High
same,IC50,[3],1600 nM
"CC(NC(=O)N(C)C1CCN(C)CC1)c1ccc(-c2cncc(-c3cncs3)c2)c(Cl)c1Cl (stereo not shown) [Compound H0716, 3-(1-(2,3-dichloro-4-(5-(thiazol-5-yl)pyridin-3-yl)phenyl)ethyl)-1-methyl-1-(1-methylpiperidin-4-yl)urea]",EC50,[1],> 30000 nM
same,Metabolic Stability H,[4],Low
same,Metabolic Stability M,[5],Medium
same,IC50,[3],15 nM
"CC(NC(=O)N(C)C1CCN(C)CC1C)c1ccc(-c2cccnc2)c(Cl)c1Cl (stereo not shown) [Compound H0527, 3-(1-(2,3-dichloro-4-(pyridin-3-yl)phenyl)ethyl)-1-(1,3-dimethylpiperidin-4-yl)-1-methylurea]",EC50,[1],> 30000 nM
same,Metabolic Stability H,[4],Medium H Medium M
same,Metabolic Stability M,[5],Medium H Medium M
same,IC50,[3],19 nM
CC(NC(=O)N(C)C1CCN(C)CC1)c1ccc(-c2cnc3[nH]ccc3c2)c(Cl)c1Cl (stereo not shown) [Compound H0514],EC50,[1],38 nM
same,Metabolic Stability H,[4],Medium H Medium M
same,Metabolic Stability M,[5],Medium H Medium M
same,IC50,[3],16 nM
"COc1ccc(-c2ccc(C(C)NC(=O)N(C)C3CCN(C)CC3)c(Cl)c2Cl)cc1 (stereo not shown) [Compound H0508, 3-(1-(2,3-dichloro-4′-methoxy-[1,1′-biphenyl]-4-yl)ethyl)-1-methyl-1-(1-methylpiperidin-4-yl)urea]",EC50,[1],> 30000 nM
same,Metabolic Stability H,[4],Medium
same,Metabolic Stability M,[5],High
same,IC50,[3],76 nM
"CC(NC(=O)N(C)C1CCN(C)C1)c1ccc(-c2cn[nH]c2)c(Cl)c1Cl (stereo not shown) [Compound H0529, 3-(1-(2,3-dichloro-4-(1H-pyrazol-4-yl)phenyl)ethyl)-1-methyl-1-(1-methylpyrrolidin-3-yl)urea]",EC50,[1],> 30000 nM
same,Metabolic Stability H,[4],Medium
same,Metabolic Stability M,[5],Poor
same,IC50,[3],12 nM
"CC(NC(=O)N(C)C1CCN(C)CC1)c1ccc(-c2cncc(C=O)c2)c(Cl)c1Cl (stereo not shown) [Compound H0642, 3-(1-(2,3-dichloro-4-(5-formylpyridin-3-yl)phenyl)ethyl)-1-methyl-1-(1-methylpiperidin-4-yl)urea]",EC50,[1],> 30000 nM
same,Metabolic Stability H,[4],Very low
same,Metabolic Stability M,[5],Very Low
same,IC50,[3],78 nM
"CC(NC(=O)N(C)C1CCN(C)CC1)c1ccc(-c2cncc(C(F)F)c2)c(Cl)c1Cl (stereo not shown) [Compound H0637, 3-(1-(2,3-dichloro-4-(5-(difluoromethyl)pyridin-3-yl)phenyl)ethyl)-1-methyl-1-(1-methylpiperidin-4-yl)urea]",EC50,[1],> 30000 nM
same,Metabolic Stability H,[4],Medium H Medium M
same,Metabolic Stability M,[5],Medium H Medium M
same,IC50,[3],85 nM
"CC(NC(=O)N(C)C1CCN(C)CC1)c1ccc(-c2cncs2)c2ccccc12 (stereo not shown) [Compound H0597, 1-methyl-1-(1-methylpiperidin-4-yl)-3-(1-(4-(thiazol-5-yl)naphthalen-1-yl)ethyl)urea]",EC50,[1],> 30000 nM
same,Metabolic Stability H,[4],Poor H Poor M
same,Metabolic Stability M,[5],Poor H Poor M
same,IC50,[3],24 nM
"CCN(C(=O)NC(c1ccc(-c2cnccn2)c(Cl)c1Cl)C(F)(F)F)C1CCN(C)CC1 (stereo not shown) [Compound H0909, 3-(1-(2,3-dichloro-4-(pyrazin-2-yl)phenyl)-2,2,2-trifluoroethyl)-1-ethyl-1-(1-methylpiperidin-4-yl)urea]",EC50,[1],> 30000 nM
same,Metabolic Stability H,[4],Medium
same,Metabolic Stability M,[5],High
same,IC50,[3],12 nM
"CN1CCC(N(C)C(=O)NC(COCc2cccc(CO)c2)c2ccc(-c3ccsc3)c(Cl)c2Cl)CC1 (stereo not shown) [Compound H0594, 3-(1-(2,3-dichloro-4-(thiophen-3-yl)phenyl)-2-((3-(hydroxymethyl)benzyl)oxy)ethyl)-1-methyl-1-(1-methylpiperidin-4-yl)urea]",EC50,[1],> 30000 nM
same,Metabolic Stability H,[4],Poor
same,Metabolic Stability M,[5],Medium
same,IC50,[3],54 nM
"CN1CCC(N(C)C(=O)NC(CC2CC2)c2ccc(-c3ccc(C(N)=O)s3)c(Cl)c2Cl)CC1 (stereo not shown) [Compound H0728, 5-(2,3-dichloro-4-(2-cyclopropyl-1-(3-methyl-3-(1-methylpiperidin-4-yl)ureido)ethyl)phenyl)thiophene-2-carboxamide]",EC50,[1],> 30000 nM
same,Metabolic Stability H,[4],Medium H Medium M
same,Metabolic Stability M,[5],Medium H Medium M
same,IC50,[3],5 nM
"CCN(C(=O)N[C@@H](C)c1ccc(-c2cnccn2)c(Cl)c1Cl)C1CCN(C)CC1 [Compound H0889, (S)-3-(1-(2,3-dichloro-4-(pyrazin-2-yl)phenyl)ethyl)-1-ethyl-1-(1-methylpiperidin-4-yl)urea]",EC50,[1],> 30000 nM
same,Metabolic Stability H,[4],High H High M
same,Metabolic Stability M,[5],High H High M
same,IC50,[3],6 nM
"CC(NC(=O)N(C)C1CCN(C)CC1)c1ccc(-c2ccsc2)c2ccccc12 (stereo not shown) [Compound H0574, 1-methyl-1-(1-methylpiperidin-4-yl)-3-(1-(4-(thiophen-3-yl)naphthalen-1-yl)ethyl)urea]",EC50,[1],81 nM
same,Emax,[1],2489
same,Metabolic Stability H,[4],Medium H Medium M
same,Metabolic Stability M,[5],Medium H Medium M
same,IC50,[3],67 nM
